{"source": "patent US5882851A", "about": "“Cytochrome P-450 monooxygenases” (Novartis Finance Corporation, priority 1993, dated 1999)", "key": {"[1]": {"biological_target": "T1, P-450TYR expressed in E. coli (Sorghum bicolor, UniProt Q43135)", "T1 construct": "in which the 35 N-terminal amino acids are replaced by the nine N-terminal amino acids from bovine 17α hydroxylase; nine N-terminal amino acids from bovine 17alpha-hydroxylase (replace the 35 N-terminal residues) (N); made in house; host or cells: E. coli JM109, vector pSP19g10L", "T1 sequence (Q43135 other isoform, or with tags, fused parts or gaps)": "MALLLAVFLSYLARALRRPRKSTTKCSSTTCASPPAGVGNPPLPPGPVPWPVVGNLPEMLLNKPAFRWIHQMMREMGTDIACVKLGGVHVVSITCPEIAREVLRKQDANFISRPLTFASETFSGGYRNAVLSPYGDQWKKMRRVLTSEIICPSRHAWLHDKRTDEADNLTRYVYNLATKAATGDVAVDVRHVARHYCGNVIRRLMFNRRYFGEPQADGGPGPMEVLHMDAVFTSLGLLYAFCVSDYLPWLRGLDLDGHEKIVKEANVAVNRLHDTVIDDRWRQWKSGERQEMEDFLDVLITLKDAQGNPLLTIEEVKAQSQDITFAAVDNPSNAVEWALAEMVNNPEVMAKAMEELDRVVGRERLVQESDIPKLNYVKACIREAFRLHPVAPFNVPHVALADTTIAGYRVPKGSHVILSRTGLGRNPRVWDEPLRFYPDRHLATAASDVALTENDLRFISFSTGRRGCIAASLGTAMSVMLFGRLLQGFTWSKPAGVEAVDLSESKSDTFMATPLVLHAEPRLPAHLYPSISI", "assay": "Substrate binding spectra of P-450TYR expressed in E. coli", "from_the_text": "Cytochrome P-450TYR in the oxidized state has a strong absorption peak at 420 nm, representing the low spin state of the iron of the heme group. The binding of a ligand to the heme group shifts the absorption maximum by changing the spin state of the iron. Binding of tyrosine at the catalytic site of cytochrome P-450TYR induces a change of the spin state of the oxidized iron from low to high spin, and thereby changes the absorption maximum from 420 nm to 390 nm producing a type I spectrum (Jefcoate, Methods in Enzymology 52:258-279, 1978). The following experimental procedure is used to obtain the substrate binding spectrum: two identical cuvettes containing a buffered solution of the isolated cytochrome P-450 are prepared. The substrate of the enzyme is added to the sample cuvette whereas the same volume of buffer is added to the other cuvette. The difference spectrum is then recorded in an SLM-Aminco DW2c spectrophotometer. The absorption difference, A390-420, is proportional to the concentration of cytochrome P-450TYR with a bound substrate at its active site. If a saturating concentration of substrate is added to the sample cuvette, the absorption difference is proportional to the concentration of the substrate specific cytochrome P-450 in the cuvettes. The saturating concentration of the substrate is determined by titrating the cytochrome P-450 sample with increasing amounts of substrate and monitoring A390-420.\nA modified cytocrome P-450TYR, in which the 35 N-terminal amino acids are replaced by the nine N-terminal amino acids from bovine 17α hydroxylase is introduced into the expression vector pSP19g10L which can be obtained from Dr. Henry Barnes (La Jolla, Calif.). This plasmid contains the lac Z promoter fused with the known short leader sequence (g10L) of gene 10 from bacteriophage T7 (Olin et al, 1988). A construct containing the N-terminal amino acids from bovine 17α hydroxylase and a truncated form of the P-450TYR gene is designed using PCR mutagenesis: Oligonucleotide TYROL 1d (5'-CGGGATCCATATGGCTCTGTTATTAGCAGTTTTTCTGTCGTACCTGGCCCG-3'; SEQ ID NO 23) containing a 5' mutant cDNA sequence as well as a BamHI and NdeI restriction site is used together with oligonucleotide TYROL 3 comprising the sequence surrounding the unique BamHI restriction site downstream of the ATG start codon of the cDNA coding for P-450TYR to amplify a modified N-terminal sequence of P-450TYR. The amplification product is cut with NdeI and BamHI restriction enzymes. To introduce a HindIII site immediately downstream of the stop codon of the P-450TYR gene, oligonucleotides TYROL 2 and TYROL 4 are used in a polymerase chain reaction to obtain a C-terminal fragment of the P-450TYR gene comprising a HindIII restriction site immediately downstream of the stop codon. The amplification product is cut with PstI and HindIII restriction enzymes. The complete expression plasmid is constructed by simultaneous ligation of the N-terminal NdeI/BamHI fragment, the BamHI/PstI fragment of the P-450TYR gene and the C-terminal PstI/HindIII fragment into NdeI/HindIII cleaved pSP19g10L vector DNA. The expression vector obtained is transformed into E. coli strain JM109. Transformed E. coli produce 300 nmol to 500 nmol cytochrome P-450TYR per liter cell culture upon growth at 28° C. in the presence of 1 mM isopropyl-β-D-thiogalactopyranoside and at 125 rpm. Expression levels as high as 900 nmol per liter, equivalent to 55 mg P-450TYR per liter, have been obtained. […]"}, "[2]": {"biological_target": "T2, E. coli-expressed cytochrome P-450TYR (Sorghum bicolor, UniProt Q43135)", "T2 construct": "in which the 35 N-terminal amino acids are replaced by the nine N-terminal amino acids from bovine 17α hydroxylase; nine N-terminal amino acids from bovine 17alpha-hydroxylase (replace the 35 N-terminal residues) (N); made in house; host or cells: E. coli JM109, vector pSP19g10L", "T2 sequence (Q43135 other isoform, or with tags, fused parts or gaps)": "as the sequence (Q43135 other isoform, or with tags, fused parts or gaps) above", "assay": "Reconstitution with E. coli-expressed cytochrome P-450TYR and sorghum NADPH cytochrome P450 reductase", "assay_type": "biochemical", "settings": "phenylalanine as substrate", "experimental": "10 μl of the lipid suspension is mixed in a glass vial with 50 μl of the cytochrome P-450TYR (0-1.5 pmol) solution. […] The reaction mixture is subsequently incubated for 1 hour at 30° C. At the end of the incubation period the reaction is stopped by transferring the glass vials onto ice. Radioactively labelled intermediates formed are extracted into 50 μl ehtyl acetate, applied to a silica coated TLC plate and developed using an ethyl acetate/toluene (1:5 v/v) mixture as mobile phase. The resultant product, p-hydroxyphenylacetaldehyde oxime is visualized by autoradiography of the TLC plate. Alternatively, the intermediates are analyzed by reverse-phase HPLC coupled to a Berthold radioactiviy monitor. […] Control samples may be made by omitting either cytochrome P-450 oxidoreductase or NADPH.\nReconstitution experiments with E. cole-expressed cytochrome P-450TYR and sorghum NADPH cytochorme P450 reductase in dilaurylpohsphatidylcholine micelles is performed as described in section 5.3. above."}, "glucosinolate production": {"test_system": "glucosinolate production", "assay": "Induction of glucosinolate production in Tropaeolum majus", "assay_type": "in vivo", "settings": "10 mM phenylalanine or 2% ethanol administered to the vermiculate, 24 hours, etiolated seedlings", "experimental": "Seeds of Tropaeolum majus L. cv Empress of India (Dansk Havefroforsyning, Kolding, DK) are allowed to imbibe and germinate in complete darkness for one week at 25° C. In vivo biosynthesis experiments are performed wherein 1 μCi of the tracer ^14 C-labelled phenylalanine is administered to excised dark-grown seedlings for 24 hours followed by boiling of the plant material in 90% methanol and analysis of the extracts by HPLC as described by Lykkesfeldt and Moller, 1993. Prior to administration of the tracer to the excised seedling or leaf, the intact plant is subjected to a potential inducer for 24 hours."}}}
{"smiles": "N[C@@H](Cc1ccccc1)C(=O)O", "note": "[phenylalanine]", "values": [{"measurement": "type of substrate binding spectrum", "setting": "[1]", "result": "type Ispectrum"}, {"measurement": "production of the corresponding oxime", "setting": "[2]", "result": "do not result in the production of the corresponding oxime"}, {"measurement": "increase in glucosinolate production as compared to control experiments with water", "setting": "glucosinolate production", "result": "threefold increase"}]}
